Patent publication US10925858B2, “S-nitrosoglutathione (GSNO) and GSNO reductase inhibitors for use in therapy” (MUSC FOUNDATION FOR RESEARCH DEVELOPMENT, priority 2017, dated 2021)

Experiments:
EAE mice = experiment: Active EAE (MOG35-55), clinical score; format: in vivo, C57BL/6 mice
Protocol: Female C57BL/6 mice of 8-12 weeks of age, purchased from Jackson Laboratory, were provided with food and water ad libitum and were kept in pathogen free animal care facility of Medical University of South Carolina (MUSC) throughout the study. […] EAE was induced as described previously (Nath et al., 2009). Briefly, mice were immunized subcutaneously in the flank regions with MOG35-55 peptide (MOG; 200 μg; Peptide International) emulsified (1:1) in 100 ul complete Freund's adjuvant (CFA) on day 0 and day 7. Additionally, 300 ng of Pertussis toxin (Sigma-Aldrich, St. Louis, Mo.) was given on day 0 and day 2 by i.p. injection. Pertussis toxin used as per the standardized protocol reported by us and other investigators for the induction of EAE (Nath et al., 2009). Similarly, healthy control group received subcutaneous injection of PBS and CFA emulsion on day 0 and day 7. Clinical signs of EAE were scored by examiners blinded to experimental treatments using the following scale: 0=no clinical signs of disease; 1=piloerection and sluggish; 2=limp tail (ataxia); 2.5=ataxia with partial hind limb paralysis; 3=full paralysis of hind limb; 3.5=full paralysis of hind limb with paralysis of one fore limb; 4=full paralysis of two limbs; 4.5=moribund stage; 5=death. […] The drug treatments were continued till the termination of the study (day 41 post immunization). EAE animals without drug treatment received PBS. Likewise, healthy controls received vehicle.
Clinical disease scores as average maximal scores over the treatment period (mean±SD) and analyzed using Kruskal-Wallis test. […] Significances (p value) between groups were determined using the Newman-Keul test. A value of p<0.05* and above was considered significant.

lymphocytes in blood = experiment: Total lymphocyte count in blood of normal mice (lymphopenic effect); format: in vivo, C57BL/6 mice; details: normal mice without EAE, 1 mg/kg/day for 19 days
Protocol: The bloods collected in EDTA blood collection tubes (BD Biosciences) were analyzed by an automated hematology analyzer for counting total lymphocytes. For counting of each subset of lymphocytes, 50 μl of blood was mixed with staining buffer (20 μl) containing fluorescence labelled antibodies and red-blood-cells were lysed with FACS lysing solution (BD Biosciences) prior to fluorescence flow-cytometric analysis. For staining of CD3+, CD4+, and CD8+ cells, allophycocvanin (APC)-labeled anti-mouse CD3 (eBioscience clone 17A2), Fluorescein isothiocyanate (FITC)-labeled anti-mouse CD4 (eBioscience clone RM4-5), APC-labeled anti-mouse CD8 (eBioscience clone 53-6.7) and appropriate isotype matched controls.

RhoA = RhoA activity assay in thrombin treated hBMVECs; format: cell-based, human; details: thrombin 0.1 unit/ml 5 min; L-NIO or FeTPPS 10 μM pretreated 30 min; GSNO or SIN-1 various concentrations pretreated 2 hr
Protocol: (§1) Cell culture: Primary human brain microvascular endothelial cells (hBMVECs) were purchased from Angio-Proteomie (Cat #: cAP-0002, Atlanta, Ga.). The cells were cultured in cell culture flasks or plates precoated with Quick Coating Solution (Angio-Proteomie; Cat #: cAP-01) and maintained in Endothelial Growth Medium (Angio-Proteomie; Cat #: cAP-02) at 37° C. under 5% CO2/95% air. When the cells were almost confluent, the medium was replaced with endothelial basal medium (Angio-Proteomie; Cat #: cAP-03) containing 0.5% fetal bovine serum (FBS; Life Technologies, Grand Island, N.Y.) about 8-12 hours before the experiment. No institutional approval was required for this study. The study was not pre-registered.
RhoA activity in hBMVECs was analyzed by RhoA Activation Assay Kit (Abeam Cat #: ab211164, Cambridge, Mass.). Briefly, following drug treatments, the cells were lysed with 1× Assay buffer provided in the kit. Lysates were centrifuged (14,000×g for 10 sec), and supernatants were incubated with agarose beads coupled to GST-Rhotekin-Rho binding domain (RBD) for 2 h at 4° C. Beads were then washed with 1× Assay buffer and GTP-bound RhoA was eluted with 2×SDS-PAGE sample buffer. Amounts of active (GTP-bound) RhoA were determined by Western blot analysis using antibody specific to RhoA (Abeam).

[1] = test system: intracellular Ca^2+ ([Ca^2+]i) influx; experiment: Assay for intracellular Ca2+ influx in thrombin treated hBMVECs; format: cell-based, human; details: thrombin 0.1 unit/ml; L-NIO or FeTPPS 10 μM; GSNO or SIN-1 various concentrations
Protocol: as §1, with “pre-registered. Intracellular Ca^2+ concentration ([Ca^2+]i) was measured with Fluo-4 Direct Calcium Assay Kit (Thermo Fisher Scientific, Cat #: F10471, Grand Island, N.Y.). Briefly, culture medium in the 96-well plate was replaced with a Ca^2+ sensitive dye Fluo-4 in an endothelial basal medium. After 30 min incubation, the dye was removed and cells were incubated with the original medium with or without the drugs at 37° C. for 15 min. Following thrombin treatment, time course changes of fluorescent intensity were quantified using a CLARIOstar multi-well fluorometer (BMG Labtech, Cary, N.C.).” for “pre-registered.”

myosin light chain (MLC) = experiment: Western analysis of MLC phosphorylation (Ser19) in thrombin treated hBMVECs; format: cell-based, human; details: thrombin 0.1 unit/ml 5 min; L-NIO or FeTPPS 10 μM; GSNO or SIN-1 various concentrations
Protocol: as §1
Western immunoblot analysis was performed by standard method using 50 μg of cell lysates. Following the SDS-PAGE electrophoresis, proteins were transferred from the gel onto the Polyvinylidene fluoride membrane (GE Healthcare Life Sciences, Marlborough, Mass.). Membranes were blocked with non-fat dry milk (Santa Cruz Biotechnology) or I-Block™ (ThermoFisher Scientific, Waltham, Mass.) for detection of phospho-proteins and incubated with primary antibodies, such as MBP (Santa Cruz Biotech Cat #: sc13914; RRID: AB_648798), phospho-(Ser^19) MLC (Abeam, Cat #: ab2480; RRID: AB_303094), MLC (Abeam, Cat #: ab79935; RRID:AB_1952220), P-actin (Santa Cruz Biotechnology, Cat #: sc-47778; RRID:AB_2714189), phospho-eNOS (Ser^1177) (Cell Signaling, Cat #: 9571; RRID: AB_329837, Danvers, Mass.), eNOS (Cell Signaling, Cat #: 32027), RhoA (Santa Cruz Biotechnology; Cat #: sc418; RRID: AB_628218) or 3-nitrotyrosine (Abeam, Cat #: ab61392; RRID: AB_942087). Following washing, the membranes were incubated with horseradish peroxidase conjugated secondary antibody (Jackson Immunoresearch Lab, West Grove, Pa.), washed and then incubated with ECL reagent (Amersham Life Science, Pittsbrugh, Pa.), and exposed to Amersham Hyperfilm ECL film

[2] = test system: protein-associated 3-nitrotyrosine; experiment: Assay for protein-associated nitrotyrosine in hBMVECs; format: cell-based, human
Protocol: as §1
Cellular levels of protein-associated 3-nitrotyrosine were analyzed by ELISA Kit (Abeam, Cat #: ab116691) and Western blot analysis using antibody specific to 3-nitrotyrosine (Abeam, Cat #: ab61392). For the ELISA, hBMVECs were lysed in extraction buffer provided with the kit followed by centrifugation at 16,000×g 4° C. The cell lysate supernatants were subjected to protein quantification with Bio-Rad DC protein assay kit (Bio-Rad, Hercules, Calif.) and the equal amounts of proteins (500 μg) were loaded onto 96 well microplate coated with 3-nitrotyrosine capture antibody and followed by incubation with biotin-conjugated 3-nitrotyrosine detector antibody. Following washing, the plates were incubated with HRP-conjugated streptoavidin and the levels of 3-nitrotyrosine were measured by incubation with 3,3′,5,5′-tetramethylbenzidine solution and colorimetric analysis at […] using SpectraMax 190 Microplate Reader (Molecular Devices, Sunnyvale, Calif.). For analysis of degree of RhoA tyrosine nitration, the cell lysates were immunoprecipiated with antibody specific to 3-nitrotyrosine (Abeam) and the levels of tyrosine nitrated RhoA were analyzed by Western analysis for RhoA.

hBMVECs [3] = experiment: Assay for F-actin stress fiber development in thrombin treated hBMVECs; format: cell-based, human; details: thrombin 0.1 unit/ml 30 min; GSNO 100 μM or SIN-1 100 μM pretreated 2 hr
Protocol: as §1
Assay for F-actin stress fiber development and endothelial cell contraction: hBMVECs were cultured on fibronectin-coated chamber slides (BD Bioscience). Following drug treatments, the cells were fixed with 4% (wt/vol) paraformaldehyde, permeabilized by the addition of 0.25% Triton X-100, and blocked by 2% bovine serum albumin (BSA) in phosphate buffered saline (PBS). […] The density of fluorescence was analyzed by ImageJ (NIH, Bethesda, Md.).

hBMVECs [4] = experiment: Assay of trans-endothelial electrical resistance (TEER) in thrombin treated hBMVECs; format: cell-based, human; details: thrombin 0.1 unit/ml; GSNO 100 μM or SIN-1 500 μM pretreated 2 hr
Protocol: as §1, with “pre-registered. For evaluation of the endothelial barrier function, hBMVECs were plated on fibronectin-coated polycarbonate filters (Transwell system, Corning, Midland, N.C.) containing Endothelial Growth Medium (Angio-Proteomie Cat #: cAP-02). The medium was renewed every other day. Five days after seeding, the medium was replaced with Endothelial Basal Medium (Angio-Proteomie Cat #: cAP-03) containing 0.5% FBS and incubated for 2 days. Following drug treatments, transendothelial electrical resistance (TEER) was measured by EVOM2 (Word Precision Instruments) as described previously (Li et al., 2006).” for “pre-registered.”

numbers of total lymphocytes, CD3+ T cells, CD4+ T cells and CD8+ cells in blood (lymphocytes in blood) | Structure (SMILES) | clinical score at the peak of disease (EAE mice; day 21 post immunization, 1 mg/kg/day from disease onset (GSNO oral, N6022 i.p., FTY720 oral), untreated EAE 3.5±0.5) | clinical score at the remission of disease (EAE mice; day 41 post immunization, 1 mg/kg/day from disease onset (GSNO oral, N6022 i.p., FTY720 oral), untreated EAE 2.5±0.5) | efficacy on EAE disease compared at the same dose (EAE mice; single dose comparison of N6022, GSNO and FTY720, 1 mg/kg/day) | thrombin-induced RhoA activation (RhoA) | thrombin-induced intracellular Ca2+ influx [1] | thrombin-induced MLC phosphorylation (myosin light chain (MLC)) | thrombin-induced 3-nitrotyrosine levels ([2]; thrombin 0.1 unit/ml 20 min, L-NIO or FeTPPS 10 μM pretreated 30 min, ELISA) | RhoA tyrosine nitration ([2]; various concentrations, incubated 2 hr) | cellular levels of protein-associated 3-nitrotyrosine ([2]; various concentrations, incubated 2 hr, no thrombin) | thrombin-induced development of F-actin stress fiber formation (hBMVECs [3]) | thrombin-induced loss of TEER (hBMVECs [4])
significantly reduced | CCCCCCCCc1ccc(CCC(N)(CO)CO)cc1 [FTY720] | 3.0±0.87 | 1.67±0.58 | less effective |  |  |  |  |  |  |  | 
 | CC(=N)NCCC[C@H](N)C(=O)O.Cl.Cl [L-NIO, N^5-(1-Iminoethyl)-L-omithine dihydrochloride] |  |  |  | decreased | had not effect | inhibited | attenuated |  |  |  | 
 | Cl.N=c1c[n+](N2CCOCC2)[n-]o1 [SIN-1, 3-morpholinosydnonimine chloride] |  |  |  | enhanced | enhanced | enhanced |  | increased | increased | enhanced | enhanced
